Tested on: HPA axis
Experiment: 24-hour urinary cortisol excretion as a measure of HPA suppression
Format: in vivo, human
Conditions: 24 h post-dose urine, single dose, healthy subjects
Source text: The below examples are used to exemplify the present invention and are in no way meant to narrow the scope of the invention. The examples compare the systemic pharmacokinetic and pharmacodynamic of a MDI made up of two drugs, namely, salmeterol and fluticasone propionate combined in a HFA propellant, namely 134a, with individual salmeterol and fluticasone propionate MDIs in a CFC propellant administered individually and with placebo (HFA 134a propellant alone). Healthy human subjects were given either salmeterol and fluticasone propionate in HFA 134a propellant, salmeterol in P11/P12, fluticasone propionate in P11/P12, or a placebo in HFA 134a propellant, in a randomized, single dose, crossover study. Potential side effects such as increased heart rate and QTc interval were measured. The levels of cortisol in the urine were also measured as a measure of HPA suppression. Twenty healthy human subjects were randomized into one of four treatment groups. […] Cortisol levels were determined from 500 μl of urine by automated immunochemiluminescence on the ASC-180 (Bayer Diagnostics) following preliminary extraction of the urine with dichloromethane. […] For untransformed parameters, the 90% (or 95%) confidence interval for the difference in least squares means was expressed as a ratio of the individual mean.

post-treatment geometric mean urinary cortisol excreted: 18.5 µg
Compound: CCC(=O)O[C@]1(C(=O)SCF)[C@H](C)C[C@H]2[C@@H]3C[C@H](F)C4=CC(=O)C=C[C@]4(C)[C@@]3(F)[C@@H](O)C[C@@]21C [fluticasone propionate, S-(fluoromethyl)6α,9-difluro-11β,17-dihydroxy-16α-methyl-3-oxoandrosta-1,4-diene-17β-carbothioate,17-propionate]

Reference: US20070122352A1, “Inhalation Drug Combinations” (GLAXO GROUP LIMITED, priority 2001, published 2007)
